Measurements: patent US10596172B2 (Celgene CAR LLC, priority 2008, dated 2020)
Read-outs that look alike come from different tables or passages of the source.

Tests used:
[1] = target: T1, BTK (Homo sapiens (Human), UniProt Q06187); experiment: Mass spectrometry for BTK (covalent modification of intact protein); assay type: binding; conditions: 1 hr, 10x fold excess of compound
Procedure: Intact BTK was incubated for 1 hr at a 10× fold excess of I-7 to protein. Aliquots (2 μl) of the samples were diluted with 10 μl of 0.1% TFA prior to micro C4 ZipTipping directly onto the MALDI target using Sinapinic acid as the desorption matrix (10 mg/ml in 0.1% TFA:Acetonitrile 20:80).

[2] = target: T1, BTK; experiment: Washout experiment with Ramos cells; assay type: cell-based; conditions: 100 nM compound 1 hour, then washout
Procedure: Ramos cells were serum starved for one hour in RPMI media +1% glutamine at 37° C. After starvation, Ramos cells were treated with 100 nM compound diluted in serum free RPMI media for 1 hour. After compound treatment, the media was removed and cells were washed with compound-free media. Subsequently, Ramos cells were washed every 2 hours and resuspended in fresh compound-free media. Cells were collected at specified timepoints, treated with 1 ug anti-human IgM (Southern Biotech cat #2022-01) for 10 minutes on ice to induce BCR signaling and then washed in PBS. Ramos cells were then lysed in Cell Extraction Buffer (Invitrogen FNN0011) supplemented with Roche complete protease inhibitor tablets (Roche 11697498001) and phosphatase inhibitors (Roche 04 906 837 001) and 18 ug total protein lysate was loaded in each lane. Inhibition of BTK kinase activity was assayed by measuring its substrate (PLCγ2) phosphorylation by western blot with phospho-specific antibodies from Cell Signaling Technologies cat #3871. The results of this experiment with compounds I-2, I-4 and I-7 are depicted in FIGS. 1, 2 and 3.

[3] = test system: B cell lymphoma cell lines; experiment: B cell lymphoma proliferation assay; assay type: cell-based
[4] = target: JAK3 (Homo sapiens (Human), UniProt P52333); experiment: Omnia assay for potency assessment against the active form of JAK3; assay type: biochemical; conditions: read-out: JAK3 Inhibition
JAK3, sequence (P52333 whole entry): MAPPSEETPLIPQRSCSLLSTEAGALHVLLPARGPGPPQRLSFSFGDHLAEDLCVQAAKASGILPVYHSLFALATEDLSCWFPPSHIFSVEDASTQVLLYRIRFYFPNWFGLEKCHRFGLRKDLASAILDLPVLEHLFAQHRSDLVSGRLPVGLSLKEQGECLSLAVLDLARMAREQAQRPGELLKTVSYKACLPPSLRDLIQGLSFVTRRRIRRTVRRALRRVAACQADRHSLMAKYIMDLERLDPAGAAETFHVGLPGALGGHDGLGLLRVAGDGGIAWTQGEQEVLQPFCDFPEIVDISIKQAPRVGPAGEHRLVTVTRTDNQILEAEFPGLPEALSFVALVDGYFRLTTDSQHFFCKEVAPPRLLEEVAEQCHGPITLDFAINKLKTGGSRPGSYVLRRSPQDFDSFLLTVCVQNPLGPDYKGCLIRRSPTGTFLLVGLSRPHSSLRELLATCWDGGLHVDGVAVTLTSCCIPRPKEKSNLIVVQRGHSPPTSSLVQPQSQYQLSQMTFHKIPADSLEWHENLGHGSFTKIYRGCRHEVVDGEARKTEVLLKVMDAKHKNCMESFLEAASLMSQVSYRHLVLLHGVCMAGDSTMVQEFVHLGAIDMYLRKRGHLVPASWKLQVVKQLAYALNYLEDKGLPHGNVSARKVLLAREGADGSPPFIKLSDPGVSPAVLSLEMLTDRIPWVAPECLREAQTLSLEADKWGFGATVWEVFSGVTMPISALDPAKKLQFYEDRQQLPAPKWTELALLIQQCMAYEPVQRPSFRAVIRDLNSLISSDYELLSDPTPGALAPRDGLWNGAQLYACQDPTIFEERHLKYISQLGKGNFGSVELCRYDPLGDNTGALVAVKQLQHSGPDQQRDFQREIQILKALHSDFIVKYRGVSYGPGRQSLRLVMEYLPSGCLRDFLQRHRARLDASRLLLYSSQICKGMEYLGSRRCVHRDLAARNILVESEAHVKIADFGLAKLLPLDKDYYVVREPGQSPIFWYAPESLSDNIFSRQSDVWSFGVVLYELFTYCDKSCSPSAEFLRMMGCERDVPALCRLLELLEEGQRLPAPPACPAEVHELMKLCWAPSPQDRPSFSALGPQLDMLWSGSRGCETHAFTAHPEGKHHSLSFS
Procedure: Briefly, 10× stocks of EGFR-WT (PV3872) from Invitrogen and EGFR-T790M/L858R (40350) from BPS Bioscience, San Diego, Calif., 1.13×ATP (AS001A) and appropriate Tyr-Sox conjugated peptide substrates (KCZ1001) were prepared in 1× kinase reaction buffer consisting of 20 mM Tris, pH 7.5, 5 mM MgCl2, 1 mM EGTA, 5 mM β-glycerophosphate, 5% glycerol (10× stock, KB002A) and 0.2 mM DTT (DS001A).
The Omnia Assay Protocol for potency assessment against JAK3 was performed in a substantially similar manner as that described in Example 251 above except that the modified JAK3-optimized reagent conditions were:
[JAK3]=5 nM, [ATP]=5 μM, [Y12-Sox]=5 μM (ATP KMapp˜5 μM).

[5] = test system: Human naïve B cells; experiment: Human primary B cell proliferation assay; assay type: cell-based; conditions: 5 μg/ml α-IgM 72 hours, 3H-thymidine incorporation
Procedure: Human naïve B cells were purified from 100 mL whole blood using a MACS purification kit designed to isolate CD19+, IgD+ cells by negative selection. Purified naïve B cells were resuspended in RPMI complete and stimulated with 5 μg/ml α-IgM for 72 hours. ^3H-Thymidine was included in the culture media for the final 16 h, cells were harvested and ^3H incorporation measured. Inhibition of B cell proliferation correlates with inhibition of BTK substrate phosphorylation after α-IgM stimulation.

[6] = Homo sapiens, DOHH-2, DOHH2 B cell lymphoma cell line, read-out: EC50 (μM) DOHH2
[7] = Homo sapiens, WSUDLCL2, WSU-DLCL2 B cell lymphoma cell line, read-out: EC50 (μM) WSU-DLCL2
[8] = DHL4 B cell lymphoma cell line, read-out: EC50 (μM) DHL4

T1 sequence (Q06187 whole entry): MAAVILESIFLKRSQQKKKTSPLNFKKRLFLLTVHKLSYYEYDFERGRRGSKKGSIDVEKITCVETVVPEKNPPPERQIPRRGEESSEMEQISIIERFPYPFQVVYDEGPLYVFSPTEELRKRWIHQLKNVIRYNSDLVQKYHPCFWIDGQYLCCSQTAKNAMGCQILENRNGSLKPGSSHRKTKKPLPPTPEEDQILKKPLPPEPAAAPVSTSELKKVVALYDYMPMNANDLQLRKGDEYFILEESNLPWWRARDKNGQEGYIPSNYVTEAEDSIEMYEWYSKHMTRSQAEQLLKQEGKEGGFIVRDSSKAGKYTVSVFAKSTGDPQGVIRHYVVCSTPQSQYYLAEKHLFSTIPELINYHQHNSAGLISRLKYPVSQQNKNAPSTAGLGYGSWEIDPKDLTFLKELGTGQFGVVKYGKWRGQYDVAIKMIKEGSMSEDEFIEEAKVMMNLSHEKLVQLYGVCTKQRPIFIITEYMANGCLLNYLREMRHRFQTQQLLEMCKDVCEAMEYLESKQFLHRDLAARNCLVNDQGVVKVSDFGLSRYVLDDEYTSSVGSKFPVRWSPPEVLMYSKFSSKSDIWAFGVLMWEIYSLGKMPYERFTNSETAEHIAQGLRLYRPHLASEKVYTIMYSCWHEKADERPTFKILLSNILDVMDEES

Compound	covalent modification of BTK by mass spectrometry [1]	BTK Inhibition Type [2]	EC50 [3, 6] [µM]	EC50 [3, 7] [µM]	IC50 [4] [nM]	EC50 [3, 8] [µM]	EC50 [5] [nM]
2-((4-(5-fluoro-2-(3-trifluoromethoxyphenylamino)pyrimidin-4-ylamino)phenyl)(hydroxy)methyl)acrylonitrile [Compound I-163]	completely modify						
Cc1cnc(Nc2ccccc2)nc1Nc1cccc(NC(=O)/C=C/CN(C)C)c1 [Compound I-38, (E)-4-(dimethylamino)-N-(3-(5-methyl-2-(phenylamino)pyrimidin-4-ylamino)phenyl)but-2-enamide]		reversible	1 to 10	1 to 10	10 to 100		
C=C(C#N)C(O)c1ccc(Nc2nc(Nc3ccccc3)ncc2F)cc1 (centres unmarked) [Compound I-161, 2-((4-(5-fluoro-2-(phenylamino)pyrimidin-4-ylamino)phenyl)(hydroxy)methyl)acrylonitrile]	completely modify		1 to 10			1 to 10	
C=CC(=O)N1CCC[C@@H](Nc2nc(Nc3cccc(OC)c3)ncc2F)C1 [Compound I-195, (R)-1-(3-(5-fluoro-2-(3-methoxyphenylamino)pyrimidin-4-ylamino)piperidin-1-yl)prop-2-en-1-one]	completely modify		1 to 10	> 10		> 10	
C=CC(=O)N(C)Cc1ccc(Nc2nc(Nc3ccccc3)ncc2C)cc1 [Compound I-219, N-methyl-N-(4-(5-methyl-2-(phenylamino)pyrimidin-4-ylamino)benzyl)acrylamide]	completely modify						
C=CC(=O)Nc1cccc(Oc2nc(Nc3ccccc3)ncc2F)c1 [Compound I-228, N-(3-(5-fluoro-2-(phenylamino)pyrimidin-4-yloxy)phenyl)acrylamide]		irreversible	> 10	> 10			
C=CC(=O)Nc1cccc(Nc2nc(Nc3ccccc3)ncc2C(N)=O)c1 [Compound I-230, 4-(3-acrylamidophenylamino)-2-(phenylamino)pyrimidine-5-carboxamide]		irreversible	1 to 10	1 to 10			
C=CC(=O)Nc1cccc(Oc2nc(Nc3ccccc3)ncc2C)c1 [Compound I-248, N-(3-(5-methyl-2-(phenylamino)pyrimidin-4-yloxy)phenyl)acrylamide]		irreversible	1 to 10	1 to 10	< 10		

The next lines start with results.

covalent modification of BTK by mass spectrometry [1]	BTK Inhibition Type [2]	EC50 [3, 6] [µM]	EC50 [3, 7] [µM]	IC50 [4] [nM]	EC50 [3, 8] [µM]	Compound	EC50 [5] [nM]
	irreversible	1 to 10	1 to 10	< 10		C=CC(=O)Nc1cccc(Nc2nc(Nc3ccccc3)ncc2F)c1 [Compound I-28, N-(3-(5-fluoro-2-(phenylamino)pyrimidin-4-ylamino)phenyl)acrylamide]	
	irreversible	1 to 10	1 to 10	< 10		C#CCOc1cccc(Nc2ncc(C)c(Nc3cccc(NC(=O)C=C)c3)n2)c1 [Compound I-35, N-(3-(5-methyl-2-(3-(prop-2-ynyloxy)phenylamino)pyrimidin-4-ylamino)phenyl) acrylamide]	
completely modify						C=C(C#N)C(O)c1cccc(Nc2nc(Nc3ccc(OCCOC)cc3)ncc2F)c1 (centres unmarked) [Compound I-71, 2-((3-(5-fluoro-2-(4-(2-methoxyethoxy)phenylamino)pyrimidin-4-ylamino)phenyl)(hydroxy)methyl)acrylonitrile]	
completely modify		1 to 10				C=CC(=O)N1CCOc2ccc(Nc3ncc(F)c(Nc4cccc(Cl)c4)n3)cc21 [Compound I-149, 1-(6-(4-(3-chlorophenylamino)-5-fluoropyrimidin-2-ylamino)-2H-benzo[b][1,4]oxazin-4(3H)-yl)prop-2-en-1-one]	
completely modify		0.1 to 1	1 to 10			CC(C)=CC(=O)c1cccc(Nc2nc(Nc3cccc(OCCN(C)C)c3)ncc2F)c1 [Compound I-207]	
	irreversible	1 to 10	1 to 10	< 10		C=CC(=O)Nc1cccc(Nc2nc(Nc3cccc(OC)c3)ncc2C(F)(F)F)c1 [Compound I-242, N-(3-(5-trifluoromethyl-2-(3-methoxyphenylamino)pyrimidin-4-ylamino)phenyl)acrylamide]	
	irreversible	1 to 10	1 to 10	< 10		C=CC(=O)Nc1cccc(Nc2nc(Nc3ccc(OC)nc3)ncc2F)c1 [Compound I-243, N-(3-(5-fluoro-2-(6-methoxypyridin-3-ylamino)pyrimidin-4-ylamino)phenyl)acrylamide]	
completely modify		0.1 to 1	1 to 10	< 10	1 to 10	C=CC(=O)Nc1cccc(Nc2nc(Nc3cccc(OC(F)(F)F)c3)ncc2F)c1 [Compound I-244, N-(3-(5-fluoro-2-(3-(trifluoromethoxy)phenylamino)pyrimidin-4-ylamino)phenyl)acrylamide]	
	irreversible	0.1 to 1	1 to 10	< 10		C=CC(=O)Nc1cccc(Nc2nc(Nc3ccc(F)cc3)ncc2F)c1 [Compound I-247, N-(3-(5-fluoro-2-(4-fluorophenylamino)pyrimidin-4-ylamino)phenyl)acrylamide]	
				1000 to 10000		CCC(=O)Nc1cccc(Nc2nc(Nc3ccccc3)ncc2C)c1 [I^R-7, N-(3-(5-methyl-2-(phenylamino)pyrimidin-4-ylamino)phenyl) propionamide]	> 1000
